Molecular target: T1, SOD1^A4V (Homo sapiens, UniProt P00441, A5V)
T1 construct: The full-length constructs of SOD1-wild type (aa: 1–145) and its corresponding SOD1 disease mutant, SOD1^A4V; His-tag (cleaved yes); made in house; host or cells: E. coli BL21 DE3
Assay: Analytical size-exclusion chromatography (SEC) aggregation assay, SOD1^A4V
Assay type: biochemical
Experimental: Fig 6 Aggregation studies of metallated and reduced SOD1^WT and SOD1^A4V on treatment with PB. ThT fluorescence was monitored during the co-incubation of metallated SOD1^WT (50 μM) (a) or SOD1^A4V (50 μM) (b) with PB at 1:30 molar ratio at 37 °C with continuous shaking, under reduced conditions. The values were normalized to the maximal ThT intensity elicited by SOD1^WT or SOD1^A4V and fitted to a Boltzmann sigmoidal equation. The control and PB-treated species were compared to analyse the effects of PB on the aggregation of SOD1^WT and SOD1^A4V. Error bars indicate the standard deviation. Analytical SEC of metallated SOD1^WT (50 μM) (c) and SOD1^A4V (50 μM) (d) with PB were analyzed under reducing conditions before and after 24 hrs and 48 hrs incubation at 37 °C. The first peak eluting at the volume was denoted as oligomerized SOD1^WT/SOD1^A4V (L). The second, third, and fourth peaks were calculated as trimer (T), dimer (D), and monomer (M) species of SOD1^WT/SOD1^A4V running at 14.5 ml, 15.7 ml, and 16.5 ml, respectively. […]
Fig 7 Aggregation studies of de-metallated and reduced SOD1^WT and SOD1^A4V on treatment with PB. ThT fluorescence was monitored during the co-incubation of de-metallated SOD1^WT (50 μM) (a) or SOD1^A4V (50 μM) (b) with PB at 1:30 molar ratio at 37 °C with continuous shaking, under reduced conditions. […] Analytical SEC of de-metallated SOD1^WT (50 μM) (a) and SOD1^A4V (50 μM) (b) with PB were analysed under reducing conditions before and after 24 hrs and 48 hrs incubation at 37 °C. […] The second, third, and fourth peaks were calculated as trimer (T), dimer (D), and monomer (M) species of SOD1^WT/SOD1^A4V running at 14.5 ml, 15.7 ml, and 16.5 ml, respectively. […]
The anti-aggregation activity of PB was validated on the SOD1^WT and the disease mutant (SOD1^A4V) through size exclusion chromatography. The analytical size-exclusion chromatography is a gold standard method for comprehensively evaluating protein species through their molecular weight variations detected by the protein peaks’ elution volume (Ve). […]

T1 sequence (P00441 whole entry A5V): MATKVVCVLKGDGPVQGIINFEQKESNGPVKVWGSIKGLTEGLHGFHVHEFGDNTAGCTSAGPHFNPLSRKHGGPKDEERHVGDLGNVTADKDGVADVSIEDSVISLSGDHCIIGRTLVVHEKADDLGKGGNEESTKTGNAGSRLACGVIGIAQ

CCCC[C@H](C)/C=C(C)/C=C/C(=O)O [PB, (S, 2E, 4E)-4,6-dimethyldeca-2,4-dienoic acid]
trimer population (SEC) (De-metallated (EDTA) SOD1^A4V 50 μM, PB 30X, reducing conditions): reduces the trimer population
trimer populations (SEC) (Metallated SOD1^A4V 50 μM, PB 60X, reducing conditions): trimer populations were significantly reduced
formation of toxic trimer species (SEC) (Metallated SOD1^A4V 50 μM, PB at a ratio of 1:30, reducing conditions): visibly reduced the formation of toxic trimer species
